For orientation: Emax means the size of the effect at its maximum, as opposed to the concentration needed. The EC50 is the concentration at which the effect is half-maximal.

This test deals with primary human T-cells. Kind of test: IL2 secretion measurements in CD3-stimulated T-cells. Format: cell-based. The conditions noted are these: Homo sapiens, T-cell, 24 h, CD3 condition; for Emax: IL2 after 24 hours, 20 μM reference compound A1 = 100%, read-out: Emax IL2 (% activation); for EC50: IL2 secretion after 24 hours, read-out: Tcell IL2 CD3 EC50. On the procedure: As readouts for T-cell activation, IL2 secretion after 24 hours and proliferation after 5 days was measured. Increases in IL2 secretion and proliferation upon compound treatment were assessed as the % of the maximum of reference compound A1. WO 2016/139181 discloses reference compound A1 as example 70. As a counter screen and to make sure that no unwanted TCR-independent activation was triggered, PBS conditions were run for all compounds.
Expanded primary human T-cells were thawed and cultured in RPMI 1640 (Gibco, #61870-010)+5% human serum (HS, Sigma, #H3667)+1 mM Sodium Pyruvate (Gibco, #11360-039)+50 μM 2-mercaptoethanol (Gibco, #31350-010) and 1× Pen-Strep (Life Technologies, #15140122) medium at density of 2 Mio/ml for 3 hours in 5% CO2, 37° C. and 95% humidity. For coating of plates, […] or PBS++ with CD3 antibody (concentration depending on donor and determined by CD3 titrations) was added 100 μl/well to Poly-D Lysine coated 96-well plates. Plates were sealed and incubated at room temperature for 3 hours on a table-top rocking platform. After incubation, plates were washed once with PBS−− and filled with 40 μl/well culture medium only. Compounds were then added (see next section) to medium only plates. After 3 hours of culturing the T-cells, cells were filtered through a cell strainer (Miltenyi Biotech, #130-041-407), counted again and concentration was adjusted to 1.25 Mio/ml.
Cells were then seeded 80 μl/well to the 40 μl/well including dispensed compounds according to plate layout. By adding cells, compounds were further diluted 1:3, and resulting in 100k cells/120 µl/well. After 24 hours 40 μl of supernatant was collected carefully from the top while not disturbing the cells and transferred into a round bottom 96 well plate. Collected and frozen supernatant was used for detection of IL2 using the IL-2 Human ProQuantum Immunoassay Kit (Invitrogen) or using the Human IL-2 ELISA Kit (Thermo Fisher).
Compound Treatment Compounds were added in a 5 or 6 pt dose response with the Tecan D300e Digital Dispenser, all conditions 3 times more concentrated than the end-concentration, since cells are added afterwards (80p1 cells to 40p1 prepared medium with treatment). The DR was starting at 20 μM or 10 μM final top concentration and a dilution factor of 3.333. The positive control was the reference compound A1 that was added in a dose response as well, additionally to 3 wells of only 20 μM representing the positive stimulator control. All wells were normalized with DMSO to a final concentration of 0.6% (0.2% end-concentration).
The immunoassay is done following the manufacturer's manual (Invitrogen, #A35603).
Additional information: For the immunoassay, MicroAmp™ EnduraPlate™ Optical 384-Well plates are used. Frozen supernatant is thawed and centrifuged for 5 minutes at 1000×g, both steps at 4° C. After centrifugation, required sample amount is taken from the top, and in a separate LightCycler V-bottom plate (working plate) diluted with assay dilution buffer, dilution factor depending on the PBS or CD3 condition but at least 1:3. IL-2 standard and blanks are prepared in the same V-bottom plate, standard with a range of 0.0128-5000 pg/ml (extended version). After preparation, 5 μl of sample dilutions or standard/blanks are transferred to the optical 384-well plate (assay plate) and the 10 μl reaction protocol is being followed. For measurement, the QuantStudio 12K Flex system is used. Raw data is extracted and IL-2 concentrations are calculated with the Thermo Fisher online app (apps.thermofisher.com/apps/proquantum).
ELISA is done following the manufacturer's manual (Thermo Fisher Scientific, #88-7025-88). Additional information: For the ELISA Nunc MaxiSorp 96 well plates are used. Frozen supernatant is thawed and centrifuged for 5 minutes at 1000×g, both steps at 4° C. […]

On to `CS(=O)(=O)C1(c2nnc(-c3cc4c(cc3F)S(=O)(=O)C[C@H](N)C(=O)N4Cc3ccc(Cl)cc3)o2)CC1` [Example 1, (3R)-3-amino-5-[(4-chlorophenyl)methyl]-8-fluoro-7-[5-(1-methylsulfonylcyclopropyl)-1,3,4-oxadiazol-2-yl]-1,1-dioxo-2,3-dihydro-1λ6,5-benzothiazepin-4-one], for which the Emax was determined as 55% and the EC50 came to 1010 nM.

As for `CC(C)(c1nnc(-c2cc3c(cc2F)S(=O)(=O)C[C@H](N)C(=O)N3Cc2ccc(Cl)cc2)o1)S(C)(=O)=O` [Example 2, (3R)-3-amino-5-[(4-chlorophenyl)methyl]-8-fluoro-7-[5-(1-methyl-1-methylsulfonyl-ethyl)-1,3,4-oxadiazol-2-yl]-1,1-dioxo-2,3-dihydro-1λ6,5-benzothiazepin-4-one], the Emax came to 94% and the EC50 worked out at 328 nM.

On to `CC(C)(c1nnc(-c2ccc3c(c2)N(Cc2ccc(OC(F)(F)C(F)F)cc2)C(=O)[C@@H](N)CS3(=O)=O)o1)S(C)(=O)=O` [Example 3, (3R)-3-amino-7-[5-(1-methyl-1-methylsulfonyl-ethyl)-1,3,4-oxadiazol-2-yl]-1,1-dioxo-5-[[4-(1,1,2,2-tetrafluoroethoxy)phenyl]methyl]-2,3-dihydro-126,5-benzothiazepin-4-one], for which the Emax was determined as 102% and the EC50 is 1320 nM.

Regarding `CC(C)(c1nnc(-c2ccc3c(c2)N(Cc2ccc(Oc4ccccc4)cc2)C(=O)[C@@H](N)CS3(=O)=O)o1)S(C)(=O)=O` [Example 5, (3R)-3-amino-7-[5-(1-methyl-1-methylsulfonyl-ethyl)-1,3,4-oxadiazol-2-yl]-1,1-dioxo-5-[(4-phenoxyphenyl)methyl]-2,3-dihydro-1λ6,5-benzothiazepin-4-one], the Emax turned out to be 118% and the half-maximal effective concentration (EC50) was determined as 2110 nM.

Regarding `CC(C)(c1nnc(-c2ccc3c(c2)N(Cc2ccc(OCC(F)(F)F)cc2)C(=O)[C@@H](N)CS3(=O)=O)o1)S(C)(=O)=O` [Example 6, (3R)-3-amino-7-[5-(1-methyl-1-methylsulfonyl-ethyl)-1,3,4-oxadiazol-2-yl]-1,1-dioxo-5-[[4-(2,2,2-trifluoroethoxy)phenyl]methyl]-2,3-dihydro-1λ6,5-benzothiazepin-4-one], the Emax was determined as 54% and the half-maximal effective concentration (EC50) was determined as 2660 nM.

As to `CC(C)(c1nnc(-c2ccc3c(c2)N(Cc2ccc(SC(F)(F)F)cc2)C(=O)[C@@H](N)CS3(=O)=O)o1)S(C)(=O)=O` [Example 7], the Emax amounted to 94% and the EC50 was determined as 2800 nM.

Consider `CC(C)(c1nnc(-c2ccc3c(c2)N(Cc2ccc(-c4ccc(F)cn4)cc2)C(=O)[C@@H](N)CS3(=O)=O)o1)S(C)(=O)=O` [Example 9, (3R)-3-amino-5-[[4-(5-fluoro-2-pyridyl)phenyl]methyl]-7-[5-(1-methyl-1-methylsulfonyl-ethyl)-1,3,4-oxadiazol-2-yl]-1,1-dioxo-2,3-dihydro-1λ6,5-benzothiazepin-4-one], for which the Emax stood at 65% and the EC50 was 5270 nM.

With `CC(C)(c1nnc(-c2ccc3c(c2)N(Cc2ccc(-c4ccc(C(F)(F)F)cn4)cc2)C(=O)[C@@H](N)CS3(=O)=O)o1)S(C)(=O)=O` [Example 10], the Emax worked out at 174% and the EC50 stood at 1770 nM.

With `CC(C)(c1nnc(-c2ccc3c(c2)N(Cc2ccc(OCc4ccccc4)cc2)C(=O)[C@@H](N)CS3(=O)=O)o1)S(C)(=O)=O` [Example 11, (3R)-3-amino-5-[(4-benzyloxyphenyl)methyl]-7-[5-(1-methyl-1-methylsulfonyl-ethyl)-1,3,4-oxadiazol-2-yl]-1,1-dioxo-2,3-dihydro-1λ6,5-benzothiazepin-4-one], the Emax worked out at 140% and the EC50 is 932 nM.

Take `CC(C)(c1nnc(-c2ccc3c(c2)N(Cc2ccc(OCc4ccc(F)cc4)cc2)C(=O)[C@@H](N)CS3(=O)=O)o1)S(C)(=O)=O` [Example 12, (3R)-3-amino-5-[[4-[(4-fluorophenyl)methoxy]phenyl]methyl]-7-[5-(1-methyl-1-methylsulfonyl-ethyl)-1,3,4-oxadiazol-2-yl]-1,1-dioxo-2,3-dihydro-1λ6,5-benzothiazepin-4-one]: the maximum response (Emax) came out at 173% and the EC50 amounted to 1020 nM.

As for `CC(C)(c1nnc(-c2ccc3c(c2)N(Cc2ccc(OCc4ccccc4F)cc2)C(=O)[C@@H](N)CS3(=O)=O)o1)S(C)(=O)=O` [Example 14, (3R)-3-amino-5-[[4-[(2-fluorophenyl)methoxy]phenyl]methyl]-7-[5-(1-methyl-1-methylsulfonyl-ethyl)-1,3,4-oxadiazol-2-yl]-1,1-dioxo-2,3-dihydro-1λ6,5-benzothiazepin-4-one], the Emax is 101% and the EC50 was determined as 3770 nM.

In the case of `CN(Cc1ccccc1)c1ccc(CN2C(=O)[C@@H](N)CS(=O)(=O)c3ccc(-c4nnc(C(C)(C)S(C)(=O)=O)o4)cc32)cc1` [Example 15, (3R)-3-amino-5-[[4-[benzyl(methyl)amino]phenyl]methyl]-7-[5-(1-methyl-1-methylsulfonyl-ethyl)-1,3,4-oxadiazol-2-yl]-1,1-dioxo-2,3-dihydro-1λ6,5-benzothiazepin-4-one], the Emax is 99% and the EC50 is 3530 nM.

`CC(C)(c1nnc(-c2ccc3c(c2)N(Cc2ccc(OC4CCCC4)cc2)C(=O)[C@@H](N)CS3(=O)=O)o1)S(C)(=O)=O` [Example 16, (3R)-3-amino-5-[[4-(cyclopentoxy)phenyl]methyl]-7-[5-(1-methyl-1-methylsulfonyl-ethyl)-1,3,4-oxadiazol-2-yl]-1,1-dioxo-2,3-dihydro-1λ6,5-benzothiazepin-4-one]: the Emax was found to be 61% and the EC50 was determined as 6220 nM.

With `CC(C)(c1nnc(-c2ccc3c(c2)N(Cc2ccc(-c4noc(C(F)(F)F)n4)cc2)C(=O)[C@@H](N)CS3(=O)=O)o1)S(C)(=O)=O` [Example 17, (3R)-3-amino-7-[5-(1-methyl-1-methylsulfonyl-ethyl)-1,3,4-oxadiazol-2-yl]-1,1-dioxo-5-[[4-[5-(trifluoromethyl)-1,2,4-oxadiazol-3-yl]phenyl]methyl]-2,3-dihydro-1λ6,5-benzothiazepin-4-one], the Emax was determined as 153% and the concentration for a half-maximal effect (EC50) was found to be 3420 nM.

`CCC(CC)Oc1ccc(CN2C(=O)[C@@H](N)CS(=O)(=O)c3ccc(-c4nnc(C(C)(C)S(C)(=O)=O)o4)cc32)cc1` [Example 19, (3R)-3-amino-5-[[4-(1-ethylpropoxy)phenyl]methyl]-7-[5-(1-methyl-1-methylsulfonyl-ethyl)-1,3,4-oxadiazol-2-yl]-1,1-dioxo-2,3-dihydro-1λ6,5-benzothiazepin-4-one]: the Emax turned out to be 54% and the EC50 was determined as 8700 nM.

As for `CC(C)(c1nnc(-c2ccc3c(c2)N(Cc2ccc(-c4ccc(C#N)cc4)cc2)C(=O)[C@@H](N)CS3(=O)=O)o1)S(C)(=O)=O` [Example 20, 4-[4-[[(3R)-3-amino-7-[5-(1-methyl-1-methylsulfonyl-ethyl)-1,3,4-oxadiazol-2-yl]-1,1,4-trioxo-2,3-dihydro-1λ6,5-benzothiazepin-5-yl]methyl]phenyl]benzonitrile], the Emax is 77% and the EC50 is 5000 nM.

The record behind these values is patent publication US20260035364A1, “BICYCLIC TETRAHYDROTHIAZEPINE DERIVATIVES” (Hoffmann-La Roche Inc., priority 2022, published 2026).
